IC50 data for 26 compounds are collected here from patent US11028090B2 (Dong Wha Pharm. Co., Ltd., priority 2017, dated 2021).

The test system of experiment [1] is acute myelogenous leukemia cells (MV-4-11 cells). The experiment in a line: Cytotoxicity to acute myelogenous leukemia cells (MV-4-11 cells), CCK-8. To be noted: Homo sapiens, MV4-11, 72 h.
Experiment [2] has as its target BRD4 (BD1+BD2) bromodomain (Homo sapiens (Human), UniProt O60885). Description: BRD4 binding inhibition (AlphaScreen, GST-BRD4 vs tetraacetylated histone H4 peptide). In outline: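 AlphaScreen read after 30 min dark incubation at room temperature with glutathione acceptor/streptavidin donor beads (10 μg/ml each). The beads were added to compound plus 100 nM biotin-H4 (K5,8,12,16-acetyl) peptide and 100 nM GST-BRD4 BD1+BD2 in pH 7.4 HEPES/Tween/BSA/DTT buffer.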

Where [3] appears, read: read-out: MV-4-11 Cytotoxicity IC50.
The mark [4] stands for this setting: GST-BRD4 (BD1+BD2) vs biotinylated acetyl-histone H4 peptide, AlphaScreen, read-out: BRD4 IC50.
The mark [5] stands for this setting: read-out: IC50, cytotoxicity against acute myelogenous leukemia cells.
Setting [6] is: GST-BRD4 (BD1+BD2) / biotinylated acetyl-histone H4 (Lys5,8,12,16) peptide, read-out: IC50, BRD4 binding inhibition.

Where two headings read alike, the source gives them in different places.

In the case of `CCOC(=O)NCCCCNc1nc2cc(OC)c(OC)cc2n2c(C)nnc12` [Example 61, [4-(7,8-dimethoxy-1-methyl-[1,2,4]triazolo[4,3-a]quinoxaline-4-ylamino)-butyl]-carbamic acid ethylester], the figures for the 50% inhibitory concentration (IC50) in experiment [1] (setting [3]) and in experiment [2] (setting [4]) were 380 nM and 56 nM, respectively.
For `CCC(C)OC(=O)NCCCCNc1nc2cc(OC)c(OC)cc2n2c(C)nnc12` (centres unmarked) [Example 63, [4-(7,8-dimethoxy-1-methyl-[1,2,4]triazolo[4,3-a]quinoxaline-4-ylamino)-butyl]-carbamic acid-sec-butylester], the IC50 in experiment [1] (setting [5]) is not above 200 nM; in experiment [1] (setting [3]) it was 70 nM; in experiment [2] (setting [6]), not above 50 nM; in experiment [2] (setting [4]) it was 12 nM.
Take `CCCOC(=O)NCCCCNc1nc2cc(OC)c(OC)cc2n2c(C)nnc12` [Example 64, [4-(7,8-dimethoxy-1-methyl-[1,2,4]triazolo[4,3-a]quinoxaline-4-ylamino)-butyl]-carbamic acid propylester]: the concentration for half-maximal inhibition (IC50) in experiment [1] (setting [5]) was not above 200 nM; in experiment [1] (setting [3]) it was 120 nM; in experiment [2] (setting [6]), not above 50 nM; in experiment [2] (setting [4]), 20 nM.
`COc1cc2nc(NCCCCNC(=O)OCc3ccccc3)c3nnc(C)n3c2cc1OC` [Example 68, [4-(7,8-dimethoxy-1-methyl-[1,2,4]triazolo[4,3-a]quinoxaline-4-ylamino)-butyl]-carbamic acid benzylester]: the results for the concentration for half-maximal inhibition (IC50) in experiment [1] (setting [3]), in experiment [2] (setting [6]) and in experiment [2] (setting [4]) were 450 nM, not above 50 nM and 38 nM, respectively.
For the compound `COc1cc2nc(NCCCCNC(=O)C(C)C)c3nnc(C)n3c2cc1OC` [Example 70, N-[4-(7,8-dimethoxy-1-methyl-[1,2,4]triazolo[4,3-a]quinoxaline-4-ylamino)-butyl]-isobutyramide], the figures for the half-inhibitory concentration (IC50) in experiment [1] (setting [3]) and in experiment [2] (setting [6]) were 370 nM and not above 50 nM, respectively.
For the compound `COc1cc2nc(NCCCCNC(=O)C=C(C)C)c3nnc(C)n3c2cc1OC` [Example 71, 3-methyl-butene-2-oic acid-[4-(7,8-dimethoxy-1-methyl-[1,2,4]triazolo[4,3-a]quinoxaline-4-ylamino)-butyl]-amide], the IC50 in experiment [1] (setting [5]) is not above 200 nM; in experiment [1] (setting [3]), 110 nM; in experiment [2] (setting [6]), not above 50 nM; in experiment [2] (setting [4]), 18 nM.
Turning to `C/C=C/C(=O)NCCCCNc1nc2cc(OC)c(OC)cc2n2c(C)nnc12` [Example 72, butene-2-oic acid-[4-(7,8-dimethoxy-1-methyl-[1,2,4]triazolo[4,3-a]quinoxaline-4-ylamino)-butyl]-amide], the half-inhibitory concentration (IC50) in experiment [1] (setting [3]) is 470 nM; in experiment [2] (setting [6]), not above 50 nM; in experiment [2] (setting [4]), 21 nM.
In the case of `CCC(C)CC(=O)NCCCCNc1nc2cc(OC)c(OC)cc2n2c(C)nnc12` (centres unmarked) [Example 73, 3-methyl-pentanoic acid-[4-(7,8-dimethoxy-1-methyl-[1,2,4]triazolo[4,3-a]quinoxaline-4-ylamino)-butyl]-amide], the IC50 in experiment [1] (setting [5]) is not above 200 nM; in experiment [1] (setting [3]) it was 10 nM; in experiment [2] (setting [6]), not above 50 nM; in experiment [2] (setting [4]) it was 15 nM.
Regarding `COc1cc2nc(NCCCCNC(=O)C3CC3)c3nnc(C)n3c2cc1OC` [Example 76, cyclopropane-carboxylic acid-[4-(7,8-dimethoxy-1-methyl-[1,2,4]triazolo[4,3-a]quinoxaline-4-ylamino)-butyl]-amide], the figures for the IC50 in experiment [1] (setting [3]), in experiment [2] (setting [6]) and in experiment [2] (setting [4]) were 870 nM, not above 50 nM and 38 nM, respectively.
Take `CCC(CC)C(=O)NCCCCNc1nc2cc(OC)c(OC)cc2n2c(C)nnc12` [Example 78, N-[4-(7,8-dimethoxy-1-methyl-[1,2,4]triazolo[4,3-a]quinoxaline-4-ylamino)-butyl]-2-ethyl-butyramide]: the IC50 in experiment [1] (setting [5]) is not above 200 nM; in experiment [1] (setting [3]), 140 nM; in experiment [2] (setting [6]), not above 50 nM; in experiment [2] (setting [4]), 20 nM.
As for `COc1cc2nc(NCCCCNC(=O)CCC(C)C)c3nnc(C)n3c2cc1OC` [Example 79, 4-methyl-pentanoic acid [4-(7,8-dimethoxy-1-methyl-[1,2,4]triazolo[4,3-a]quinoxaline-4-ylamino)-butyl]-amide], the IC50 was not above 200 nM in experiment [1] (setting [5]), 70 nM in experiment [1] (setting [3]), not above 10 nM in experiment [2] (setting [6]) and 5 nM in experiment [2] (setting [4]).
Turning to `COc1cc2nc(NCCCCNC(=O)CCC3CCCC3)c3nnc(C)n3c2cc1OC` [Example 81, 3-cyclopentyl-N-[4-(7,8-dimethoxy-1-methyl-[1,2,4]triazolo[4,3-a]quinoxaline-4-ylamino)-butyl]-propionamide], the IC50 in experiment [1] (setting [5]) is not above 200 nM; in experiment [1] (setting [3]), 100 nM; in experiment [2] (setting [6]) it was not above 10 nM; in experiment [2] (setting [4]), 10 nM.
As to `COc1cc2nc(NCCCCNC(=O)[C@@H](O)C(C)C)c3nnc(C)n3c2cc1OC` [Example 83, N-[4-(7,8-dimethoxy-1-methyl-[1,2,4]triazolo[4,3-a]quinoxaline-4-ylamino)-butyl]-2-(S)-hydroxy-3-methyl-butyramide], the IC50 in experiment [1] (setting [3]) is 211 nM; in experiment [2] (setting [6]), not above 10 nM; in experiment [2] (setting [4]) it was 2 nM.
As for `COc1cc2nc(NCCCCNC(=O)Cc3ccco3)c3nnc(C)n3c2cc1OC` [Example 85, N-[4-(7,8-dimethoxy-1-methyl-[1,2,4]triazolo[4,3-a]quinoxaline-4-ylamino)-butyl]-2-furan-2-yl-acetamide], the half-maximal inhibitory concentration (IC50) in experiment [1] (setting [5]) is not above 200 nM; in experiment [1] (setting [3]) it was 50 nM; in experiment [2] (setting [6]) it was not above 50 nM; in experiment [2] (setting [4]), 27 nM.
For `COc1cc2nc(NCCCCNC(=O)Cc3ccccc3)c3nnc(C)n3c2cc1OC` [Example 86, N-[4-(7,8-dimethoxy-1-methyl-[1,2,4]triazolo[4,3-a]quinoxaline-4-ylamino)-butyl]-2-phenyl-acetamide] the same measures were not above 200 nM, 60 nM, not above 50 nM and 17 nM.
For the compound `COc1cc2nc(NCCCCNC(=O)c3ccccc3)c3nnc(C)n3c2cc1OC` [Example 95, N-[4-(7,8-dimethoxy-1-methyl-[1,2,4]triazolo[4,3-a]quinoxaline-4-ylamino)-butyl]-benzamide], the IC50 in experiment [1] (setting [3]) is 590 nM; in experiment [2] (setting [6]), not above 50 nM; in experiment [2] (setting [4]), 36 nM.
In the case of `COc1cc2nc(NCCCCNC(=O)c3ccc(C(C)(C)C)cc3)c3nnc(C)n3c2cc1OC` [Example 96, 4-tert-butyl-N-[4-(7,8-dimethoxy-1-methyl-[1,2,4]triazolo[4,3-a]quinoxaline-4-ylamino)-butyl]-benzamide], the IC50 is 630 nM in experiment [1] (setting [3]) and not above 50 nM in experiment [2] (setting [6]).
As to `COc1cc2nc(NCCCCNC(=O)c3ccccc3OC)c3nnc(C)n3c2cc1OC` [Example 97, N-[4-(7,8-dimethoxy-1-methyl-[1,2,4]triazolo[4,3-a]quinoxaline-4-ylamino)-butyl]-2-methoxy-benzamide], the values for the concentration for half-maximal inhibition (IC50) in experiment [1] (setting [3]) and in experiment [2] (setting [6]) were 510 nM and not above 50 nM, respectively.
Regarding `COc1cc2nc(NCCCCNC(=O)c3ccc(F)cc3)c3nnc(C)n3c2cc1OC` [Example 98, N-[4-(7,8-dimethoxy-1-methyl-[1,2,4]triazolo[4,3-a]quinoxaline-4-ylamino)-butyl]-4-fluoro-benzamide], the IC50 in experiment [1] (setting [3]) was 830 nM; in experiment [2] (setting [6]), not above 50 nM; in experiment [2] (setting [4]) it was 47 nM.
For `COc1cc2nc(NCCCCNC(=O)c3ccccn3)c3nnc(C)n3c2cc1OC` [Example 105, pyridine-2-carboxylic acid-[4-(7,8-dimethoxy-1-methyl-[1,2,4]triazolo[4,3-a]quinoxaline-4-ylamino)-butyl]-amide], the concentration for half-maximal inhibition (IC50) in experiment [1] (setting [3]) came out at 650 nM; in experiment [2] (setting [4]) it was 60 nM.
On to `COc1cc2nc(NCCCCNC(=O)c3ccccc3F)c3nnc(C)n3c2cc1OC` [Example 106, N-[4-(7,8-dimethoxy-1-methyl-[1,2,4]triazolo[4,3-a]quinoxaline-4-ylamino)-butyl]-2-fluoro-benzamide], for which the concentration for half-maximal inhibition (IC50) is 310 nM in experiment [1] (setting [3]), not above 50 nM in experiment [2] (setting [6]) and 28 nM in experiment [2] (setting [4]).
As for `COc1cccc2c1nc(NCCCCNC(=O)OC(C)(C)C)c1nnc(C)n12` [Example 117, [4-(6-methoxy-1-methyl-[1,2,4]triazolo[4,3-a]quinoxaline-4-ylamino)-butyl]-carbamic acid-tert-butylester], the IC50 in experiment [1] (setting [3]) worked out at 370 nM; in experiment [2] (setting [4]), 64 nM.
Consider `COc1ccc2nc(NCCCCNC(=O)c3ccccc3Cl)c3nnc(C)n3c2c1` [Example 128, 2-chloro-N-[4-(8-methoxy-1-methyl-[1,2,4]triazolo[4,3-a]quinoxaline-4-ylamino)-butyl]-benzamide], for which the 50% inhibitory concentration (IC50) in experiment [1] (setting [5]) was not above 200 nM; in experiment [1] (setting [3]), 170 nM; in experiment [2] (setting [6]) it was not above 50 nM; in experiment [2] (setting [4]) it was 33 nM.
As to `COc1c(C)ccc2c1nc(NCCCCNC(=O)[C@@H](O)C(C)C)c1nnc(C)n12` [Example 137, 2-(S)-hydroxy-N-[4-(6-methoxy-1,7-dimethyl-[1,2,4]triazolo[4,3-a]quinoxaline-4-ylamino)-butyl]-3-methyl-butyramide], the IC50 in experiment [1] (setting [3]) is 370 nM; in experiment [2] (setting [6]) it was not above 10 nM; in experiment [2] (setting [4]), 6 nM.
Turning to `COc1c(C)ccc2c1nc(NCCCCNC(=O)c1ccccc1)c1nnc(C)n12` [Example 138, N-[4-(6-methoxy-1,7-dimethyl-[1,2,4]triazolo[4,3-a]quinoxaline-4-ylamino)-butyl]-benzamide], the concentration for half-maximal inhibition (IC50) in experiment [1] (setting [3]) is 860 nM; in experiment [2] (setting [4]), 51 nM.
Regarding `COc1c(C)ccc2c1nc(NCCCCNC(=O)c1ccccc1Cl)c1nnc(C)n12` [Example 140, 2-chloro-N-[4-(6-methoxy-1,7-dimethyl-[1,2,4]triazolo[4,3-a]quinoxaline-4-ylamino)-butyl]-benzamide], the concentration for half-maximal inhibition (IC50) amounted to 680 nM in experiment [1] (setting [3]) and 52 nM in experiment [2] (setting [4]).

The IC50 is the midpoint of a concentration-inhibition curve.
